Results taken from paper PMC3991719 (PLoS ONE, 2014).

Legend:
[1] = test system: TSST-1 production by S. aureus MN8; type: cell-based, Staphylococcus aureus
S. aureus MN8 = type: cell-based, Staphylococcus aureus
L. crispatus = L. crispatus growth and culture pH, 9 h assay; type: cell-based, Lactobacillus crispatus; conditions: data not shown; for Alteration of L. crispatus media pH compared to untreated controls: broth cultures, pH meter; for Effect on L. crispatus growth (CFUs/ml): human normal vaginal isolate, 9 h assay, plate counts on Todd Hewitt agar
Description: Cultures of a human normal vaginal isolate of L. crispatus were subjected to the same 9 hour assay as used to determine peptide antimicrobial effects on S. aureus. CFUs/ml were determined by dilution plate counts on Todd Hewitt agar (BD). The pHs of overnight broth cultures were also determined with use of a standard pH meter.

S. aureus MNPE = type: cell-based, Staphylococcus aureus
[2] = test system: TSST-1 production by S. aureus MNPE; type: cell-based, Staphylococcus aureus
[3] = test system: α-toxin production by S. aureus MNPE; type: cell-based, Staphylococcus aureus
[4] = test system: human vaginal epithelial cells (HVECs)
[5] = test system: IL-8 production by HVECs exposed to S. aureus MN8; type: cell-based, human

Substance: HNP-1: human defensin peptide purchased from Sigma-Aldrich
- Lowest dose giving complete inhibition of TSST-1 production [1]: 0.005 µg/mL
- Antimicrobial activity against S. aureus (S. aureus MN8): no antimicrobial activity was observed
- Reduction of S. aureus growth (S. aureus MN8): 1 log

Substance: HNP-2: human defensin peptide purchased from Sigma-Aldrich (CYCRIPACIAGERRYGTCIYQGRLWAFCC)
- Lowest dose giving complete inhibition of TSST-1 production [1]: 0.005 µg/mL
- Antimicrobial activity against S. aureus (S. aureus MN8): no antimicrobial activity was observed
- Reduction of S. aureus growth (S. aureus MN8): 1 log

Substance: Hbg-2: Hbg-1 peptide with scrambled sequence (STKPFFYFLHTQVKASPTSHDG)
- TSST-1 inhibition activity (in words) [1]: comparably active as Hbg-1
- Alteration of L. crispatus media pH compared to untreated controls (L. crispatus): nor was alteration in media pH observed
- Effect on L. crispatus growth (CFUs/ml) (L. crispatus): No inhibition of growth
- Effect on S. aureus MN8 growth (CFUs/ml) (S. aureus MN8): not antimicrobial at any concentration tested

Substance: SP-1: hemoglobin-like synthetic peptide, 0% positively-charged amino acids (SFPTTATYFPAFDLSAGSAQVA)
- Effect on S. aureus MNPE growth (S. aureus MNPE): lacked antimicrobial
- TSST-1 inhibition activity (in words) [2]: lacked antimicrobial (data not shown) and TSST-1 inhibition activity
- TSST-1 inhibition activity (in words) [1]: lacked antimicrobial (data not shown) and TSST-1 inhibition activity
- Alteration of L. crispatus media pH compared to untreated controls (L. crispatus): nor was alteration in media pH observed
- Effect on L. crispatus growth (CFUs/ml) (L. crispatus): No inhibition of growth
- Inhibition of α-toxin production (in words) [3]: no inhibition of α-toxin production
- Effect on S. aureus MN8 growth (CFUs/ml) (S. aureus MN8): lacked antimicrobial

Substance: SP-2: hemoglobin-like synthetic peptide, 50% positively-charged amino acids (SKPKKKTYKPHKDLSHGSAKKK)
- Effect on S. aureus MNPE growth (S. aureus MNPE): without affecting bacterial growth
- Cytotoxicity to HVECs [4]: not cytotoxic
- TSST-1 inhibition activity (in words) [2]: showed the greatest TSST-1 inhibition activity
- TSST-1 inhibition activity (in words) [1]: showed the greatest TSST-1 inhibition activity
- IL-8 production by HVECs incubated with MN8 and peptide [5]: 3.6 ± 7.2 pg/mL
- Alteration of L. crispatus media pH compared to untreated controls (L. crispatus): nor was alteration in media pH observed
- Effect on L. crispatus growth (CFUs/ml) (L. crispatus): No inhibition of growth
- Concentration at which inhibition of α-toxin production was shown [3]: 0.005 µg/mL
- Effect on S. aureus MN8 growth (CFUs/ml) (S. aureus MN8): without affecting bacterial growth
